Results on 93 compounds are retold here after a melting point compilation (Tetko et al.; mined from patent text by program, amines drawn as free bases though some values may be those of a salt).

A word on the melting point: it is the temperature, or range, at which the solid turns liquid. Compound `O=C(O)c1ccnc(NC(=O)C(Cc2ccccc2)NP(=O)(O)O)c1` (stereo not drawn) showed a melting point of 135 to 137 °C.
In the case of `O=c1c2ccccc2n(CCCCl)c2ccc(Cl)cc12` it was 141 °C; in that of `CC(C)c1cccc(NC(=N)Nc2cccc(C(C)C)c2)c1`, 118 to 119 °C; in that of `CCCc1c(OCCCSc2nc3ccc(C(=O)O)cc3[nH]2)ccc(C(C)=O)c1O`, 106 to 108 °C.
Then `COc1ccccc1C1=C(C#N)C(c2ccccc2OC)c2c[nH]nc2N1` (stereo not drawn), with 220 °C; and `CCCCc1nc(SCC)c2ccccc2c1Cc1ccc(C(=O)O)cc1`, with 150 °C.
As for `Cc1oc(-c2ccccc2)nc1Cc1cc2cc(Br)ccc2o1`, the melting point lay within 98 to 100 °C.
In the case of `COCOc1cc(F)ccc1-c1cc(-c2cccc(C(=O)O)c2)c(C#N)c(NC(=O)c2ccco2)n1` it was 254 °C; in that of `COC(OC)c1cccc(C=Cc2cccc(-n3cccc3)c2)c1`, 108 to 110 °C.
In turn, `COc1cc(N)c(Cl)cc1C(=O)NCCC1CN(Cc2ccc(C#N)cc2)CCO1` (stereo not drawn) had a melting point of 180 to 182 °C.
In the case of `Cn1cncc1[N+](=O)[O-]` it was 58 to 60 °C; in that of `Cc1cc2nncn2nc1-c1cccc(N)c1`, 182 to 186 °C.
In the case of `Cc1c(CCO)c(=O)oc2cc(O)cc(O)c12` it was 243 to 245 °C; in that of `Cc1nnc2nc(-c3ccccc3)ccn12`, 303 to 306 °C.
`CN(CCN1CCN(c2cccc(C(F)(F)F)n2)CC1)C(=O)c1ccc(F)cc1` returned a melting point of 144 °C.
Then `CSC(=S)N1Cc2c(c3ccccc3n2C)CC1C(=O)O` (stereo not drawn), with 212 to 213 °C; and `O=C(O)COc1ccc2c(-c3ccccc3F)csc2c1Cl`, with 163 to 164 °C; and `O=C(O)CCSCC(=O)c1cc2[nH]c(=O)[nH]c2cc1Cl`, with 186 to 187 °C.
In the case of `N=c1ncccn1CCc1ccccc1Br` it was 97 to 98 °C.
Regarding `CNC(=O)CCc1c(-c2ccccc2)n(C)c(=O)c2ccccc12`, the melting point was in the range of 185 to 186 °C.
The compound `Cc1c(-c2ccccc2)nn(C(C)(C)C(=O)N(C)C)c1C` registered a melting point of 115 to 117 °C.
Regarding `CC(C)(Oc1ccc(-c2ccc(CCNC(=O)c3ccccc3)cc2)cc1)C(=O)O`, the melting point was determined as 179 °C.
In the case of `Clc1ccc(CNc2nc(NC3CCCc4ccccc43)c3ccccc3n2)cc1` (stereo not drawn) it was 166 to 167 °C.
In turn, `CCCCCCCCCCCCCCCCCCOc1cccc(C(=O)O)c1OCCCOc1ccc(OCc2ccccc2)cc1` showed a melting point of 75 to 76 °C.
In the case of `C[C@H]1[C@H](c2ccccc2)OC(c2cc(Br)cc3c2OCC3)N1C` (stereo partly drawn) it was 83.5 to 85.5 °C; in that of `COc1ccc(Br)c(O)c1`, 40 to 42 °C; in that of `Cn1c2ccc(Br)cc2c2cc(Br)cc([N+](=O)[O-])c21`, 221 °C.
`Nc1ccc(CP2(=O)OCCCCO2)cc1`: the melting point was 128 to 129 °C.
Then `CC(C)(C)Oc1cccc(Cl)c1C(=O)O`, with 117 to 119 °C.
Take `COc1ccc(C(=O)C2CCN(C(C)=O)CC2)cc1`: the melting point was 102 to 105 °C.
In the case of `CN(CC(=O)O)C(=O)CCS` it was 157 to 158 °C; in that of `O=C(O)CCc1cc2ccccc2c(-c2ccccc2)n1`, 146 °C.
Then `O=C(O)Cc1c(Cl)c(F)nc(F)c1Cl`, with 157 to 159 °C; and `ClC1=Nc2ccccc2Sc2ncccc21`, with 134 to 135 °C.
With `N#Cc1ccc(NC(=O)c2ccc(C=O)cc2)cc1`, the melting point is 236 °C.
In the case of `CSc1nc(Cl)cc2nncn12` it was 164 to 165 °C.
Then `CN1C(=O)CC[C@]2(C)c3ccc(Sc4ccc(-c5ccccc5)nn4)cc3CC[C@@H]12`, with 199 to 200 °C; and `CCc1cc(C(C)=O)c(O)cc1OCc1cccc(C(=O)O)c1`, with 161 to 164 °C; and `CNC(=O)Cc1c(-c2ccc(C)cc2)nc2n(C)c3ccccc3n12`, with 251 to 252 °C.
`NCC1CCc2[nH]c3ccc(OC(F)(F)F)cc3c2C1` (stereo not drawn) came in with a melting point of 148 to 150 °C.
For `COC(=O)c1c(Cc2ccc(C(=O)CBr)cc2)c(=O)c2ccc(C)nc2n1-c1ccccc1`, the melting point is 189 to 191 °C.
In the case of `Cc1ccc(C=NNc2nsc3ccccc23)cc1` it was 294 °C; in that of `COC(=O)CCc1ccc(-n2c(C)nn(-c3ccc(C#N)cc3)c2=O)cc1`, 163 to 164 °C; in that of `O=[N+]([O-])C(F)(CO)CO`, 86 to 87 °C.
`CCc1nn(C2CCCC2)c2cc(C(=O)N(C)c3c(Cl)cncc3Cl)ccc12` yielded a melting point of 118 to 119 °C.
The compound `CCOc1ccc(C2=NN(C3CCCCC3)C(=O)[C@H]3CC=CC[C@@H]23)cc1OCC` (relative stereo) displayed a melting point of 147 to 148 °C.
Then `COC(=O)C1=C(C)NC(C)=C(C(=O)OCCN2CCN(C(c3ccccc3)c3ccccc3)CC2)C1c1cccc(C(F)(F)F)c1` (stereo not drawn), with 70 to 72 °C; and `NC1=c2c3c(ccc2=CCS1)CCCN3`, with 214 to 216 °C; and `Cc1csc(COc2nn3c(-c4ccccc4)nnc3cc2-c2ccccc2)n1`, with 177 °C.
In the case of `CNc1ccc(C2CC(=O)N(C)C2C(O)c2ccc(-c3ccccc3)s2)cc1` (stereo not drawn) it was 212 °C.
`CC(C)(C)OC(=O)N1CCC(CN2C(=O)C3(COc4cc5c(cc43)C(C)(C)CO5)c3ccccc32)CC1` (stereo not drawn) gave a melting point of 65 to 75 °C.
`COC(=O)c1cc(C(=O)N2COCC2(C)C)c2cc(Cc3ccc(F)cc3)cnc2c1O` yielded a melting point of 149 to 150 °C.
`Cc1cc(N)nc(C)c1-c1ccccc1`: the melting point lay within 105 to 112 °C.
For the compound `CC(C)(C)N(C(=O)COc1nnc(C(F)(F)F)s1)c1ccc(Cl)cc1`, the melting point was 82 °C.
As to `C#CCCCCCCCCCCCCCO`, the melting point was 42 to 44 °C.
Regarding `CSc1ncc(F)c(N)n1`, the melting point fell in the range of 114 to 115 °C.
The compound `COc1ccc(-c2nc(C#N)oc2-c2ccc(OC)cc2)cc1` gave a melting point of 110 to 112 °C.
For the compound `O=C(Nc1ccc(C(=O)N2Cc3ccccc3Cc3ccccc32)cc1)c1cccnc1`, the melting point lay in the range of 217 to 220 °C.
Take `COc1ccc(CCc2oc3cccc(O)c3c2C)cc1`: the melting point is 72 to 75 °C.
In the case of `Cc1cc(C)n2nc(S(=O)(=O)Cl)nc2c1`, the melting point was in the range of 125 to 126 °C.
In the case of `O=C(O)C1(CCCCCCCCCCCCC2(C(=O)NC3CC3)CC2)CC1` it was 95.3 to 97.7 °C; in that of `CCOP(=O)(Cc1ccc2nc(-c3ccc(OC)cc3)oc2c1)OCC`, 86 to 88 °C; in that of `Brc1ccc(-c2cnc(-c3ccccc3)nc2)cc1`, 194 °C.
`O=C(c1cc(-c2ccc(Cl)c(Cl)c2)ccn1)N(O)Cc1ccccc1`: the melting point is 125 to 130 °C.
In the case of `CS(=O)(=O)On1nnc2ccc([N+](=O)[O-])cc21` it was 115 to 116 °C; in that of `Clc1c(CBr)ccc2cc(CBr)ccc12`, 127 to 129 °C; in that of `Cn1c(OCC(F)(F)C(F)F)n[nH]c1=O`, 101 °C.
In the case of `CN(C)c1c(C(N)=O)sc2cccc(Cl)c12` it was 194 to 196 °C; in that of `Cc1ncc(C(=O)Nc2ccc(-n3nc(C(F)(F)F)cc3C3CC3)cc2)c(C)n1`, 145 to 147 °C; in that of `CC(C)(C)OC(=O)N1CCC2(C=Cc3ccccc32)CC1`, 128 °C.
In the case of `CSc1ncncc1C(O)c1ccccc1F` (stereo not drawn) it was 176 to 177 °C; in that of `Cc1c(S(C)(=O)=O)c2ccccc2n1CC1=NCCN1`, 187 to 188 °C; in that of `COC(=O)c1nc(NC(=O)CCCOc2cccc(CN3CCCCC3)c2)n(C)n1`, 108 to 110 °C.
The compound `COc1c(CCc2ccc(F)cc2)cc(Cl)cc1C(N)=O` displayed a melting point of 85 °C.
In the case of `N#CCc1ccc(NS(=O)(=O)c2cccc(Cl)c2Cl)cc1` it was 202 to 206 °C; in that of `C=CCOC(=O)c1ccc(NC(=O)C(C(=O)OC)c2ccc3c(c2)C(C)(C)CCC3(C)C)cc1` (stereo not drawn), 155 to 156 °C; in that of `CSc1ccc(C=CC(=O)c2ccc([N+](=O)[O-])cc2)cc1`, 160 °C.
In the case of `O=C(Nc1nnn(CC(F)(F)F)n1)C1c2ccccc2Oc2ccccc21` it was 209 to 210 °C; in that of `CCc1cc(CC)c(-c2c(OCCl)c(C)nn(C)c2=O)c(CC)c1`, 103 to 104 °C.
Consider `CC(C)(C)OC(=O)c1ccccc1CNC(=O)C1Cc2ccccc2N1S(=O)(=O)c1ccc(-c2cccc(C(F)(F)F)c2)cc1` (stereo not drawn), for which the melting point worked out at 68 °C.
In the case of `CC(=O)OC1CCC2(C)C(CCC3C4CCC(C(C)=O)C4(C)CC4OC432)C1` (stereo not drawn) it was 133 to 136 °C; in that of `CCC(C)c1ccccc1N1C(=O)CS/C1=N\C(=O)Nc1ccc(-c2ncn(-c3ccc(OC(F)(F)F)cc3)n2)cc1` (stereo not drawn), 169 to 177 °C; in that of `Cc1ccc(-c2ccc3c(c2)C=C(C(CN(C)C2CCOCC2)Oc2ccccc2)CCO3)cc1` (stereo not drawn), 135 to 136 °C.
The compound `Cn1nnnc1-c1ccc2[nH]ccc2c1` registered a melting point of 149 to 150 °C.
With `COc1ccccc1N1CCN(CCNc2ccccc2OC(F)(F)F)CC1`, the melting point is 69.5 to 71 °C.
In the case of `CC(CO)Oc1cc(-n2nc3n(c2=O)CCCC3)c(Cl)cc1Cl` (stereo not drawn) it was 54 to 57 °C; in that of `N#CC(=NOCF)C(N)=O`, 124 to 125 °C.
Then `CSC1CCN(C(=O)CCSC(C)=O)C1C(=O)O` (stereo not drawn), with 153 to 157 °C.
As for `CCCCc1nc(S(C)=O)c(C(=O)OCC)n1CC1Oc2ccc(Cl)cc2O1` (stereo not drawn), the melting point was determined as 103 °C.
Then `CCCCCCCCCCOc1ccc(O)c(C(=O)OC)c1`, with 40 to 43 °C.
Then `C[C@@H]1Cc2ccsc2[C@H](C)N1CCNS(=O)(=O)c1ccc([N+](=O)[O-])cc1` (relative stereo), with 116 to 119 °C; and `CC(=O)Oc1ccc(-c2cc(=O)c3cccnc3o2)cc1`, with 167 to 169 °C; and `COc1ccc(Cc2nc(-c3ccc(F)cc3)c(-c3ccc(S(C)(=O)=O)cc3)o2)cc1`, with 123 to 124 °C.
